Test results published in article PMC9351488 (Proceedings of the National Academy of Sciences of the …, 2022).
Where a name gives a salt, the structure may show the parent alone.

Experiments:
Format in all cases: in vivo, mouse
[1] = test system: spinal cord of naïve WT mice; assay: Spinal cord immunohistochemistry; settings: i.t. daily for 7 d, H-20 30 nmol or morphine 2 nmol
mice [2] = assay: Antinociceptive tolerance in CFA model; settings: i.t. 7 consecutive days, H-20 30 nmol or morphine 20 nmol
mice [3] = assay: Conditioned place preference; settings: i.t. H-20 30 nmol or morphine 2 nmol
mice [4] = assay: Open field test; settings: i.t., 30 min before test
mice [5] = assay: Rotarod test; settings: i.t. H-20 30 nmol or morphine 2 nmol, 15 to 120 min
naïve WT mice = assay: Acute itch behaviors; settings: i.t., counted within 30 min, morphine 2 nmol

Question: Which “microglial activation in spinal cord” value [1] does the source give for CN1CC[C@]23c4c5ccc(O)c4O[C@H]2[C@@H](O)C=C[C@H]3[C@H]1C5 [morphine, Morphine hydrochloride] here?
Answer: induced significant microglial activation

Question: And the “number of c-Fos–positive neurons in spinal cord” value [1]?
Answer: markedly increased the number of c-Fos–positive neurons

Question: And the “antiallodynic effect after repeated injection (tolerance)” value (mice [2])?
Answer: significantly decreased on test day 7

Question: What about the CPP response (mice [3]) of the same compound?
Answer: significant increase in the drug-treated chamber

Question: What about the “time in center area and frequency of entry into central zone (anxiety)” value (mice [4]) of the same compound?
Answer: No intergroup differences were observed

Question: And the time on rotarod (mice [5])?
Answer: did not change the length of time

Question: And the itch-related scratching behaviors (naïve WT mice)?
Answer: significantly evoked itch-related scratching behaviors
